Measurements reported in patent US20230250077A1, “SULFONYLBENZAMIDE DERIVATIVE AND CONJUGATE THEREOF, PREPARATION METHOD THEREFOR AND USE THEREOF” (Jiangsu Hengrui Pharmaceuticals Co., Ltd., priority 2020, published 2023).

Experiments:
NCI-H146 cells = assay: Inhibition of proliferation of NCI-H146 cells (CellTiter-Glo); assay type: cell-based; settings: Homo sapiens, 72 h, 3 days, read-out: Inhibitory activity IC50 (nM) for the proliferation of NCI-H146 cells
Description: In vitro inhibitory activity for the proliferation of RS4;11 cells and NCI-H146 cells was tested by the following method.
Reagents used in this experiment: RPMI-1640 medium (HyCLone, Cat #SH30243018); fetal bovine serum (Gibco, Cat #10099-141); pancreatin (Gibco, Cat #25200-072); Cell Titer-Glo (Promega, Cat #G7571).
Materials used: RS4;11 cells (Nanjing Kebai Biotechnology Co., Ltd, Cat #CBP60641); and NCI-H146 cells (ATCC, Cat #HTB-173).
The in vitro cell proliferation assay described below can determine the inhibitory activity of the test compounds for the proliferation of RS4;11 cells and NCI-H146 cells.
RS4;11 cells (or NCI-H146 cells) were cultured in an RPMI-1640 culture medium containing 10% FBS, and were passaged for 2-3 times a week in a passage ratio of 1:3 or 1:5. During passage, the cells were transferred to a centrifuge tube, and centrifuged at 1200 rpm for 3 min. The supernatant was discarded, and fresh culture medium was added to resuspend the cells. 90 μL of cell suspension was added to a 96-well cell culture plate, wherein RS4;11 cells and NCI-H146 cells were added at a density of 2.22×10^5 cells/mL. Only 100 μL of complete medium (RPMI-1640 medium containing 10% FBS) was added to the periphery of the 96-well plate. The plate was incubated in an incubator for 24 h (37° C., 5% CO2).
The test sample was diluted to a proper concentration gradient with dimethyl sulfoxide as required for the experiment. 5 μL of the solution of the test compound prepared in a gradient concentration was added to 95 μL of fresh culture medium and mixed uniformly, and then 10 μL of the culture medium containing the above compound was added to a cell culture plate. The cell culture plate was incubated in an incubator for 3 days (37° C., 5% CO2). 50 μL of CellTiter-Glo reagent was added into each well of the 96-well cell culture plate. The plate was let stand for 5-10 min away from the light at room temperature. The chemiluminescence signals were read by a microplate reader (BMG Labtech, model: PHERAstar FS) and the data were processed by GraphPad software.

[1] = system: human acute lymphoblastic leukemia RS4;11 mouse subcutaneous xenograft tumor; assay: Therapeutic effect on RS4;11 mouse subcutaneous xenograft tumor; assay type: in vivo; settings: NOD-Scid mice, RS4;11 xenograft; for Tolerability in tumor-bearing mice (weight loss) / Tumor rate TGI (%) inhibition: 10 mg/kg IV QW; for Tumor rate TGI (%) inhibition: D 20; for Mean tumor volume (mm^3) D 0: day 0, 10 mg/kg IV QW; for Mean tumor volume (mm^3) D 20: day 20, 10 mg/kg IV QW
Description: This experiment was performed to evaluate and compare the therapeutic effect of the compounds of the present disclosure on human acute lymphoblastic leukemia RS4;11 mouse subcutaneous xenograft tumor.
NOD-Scid mice, 5 weeks old, purchased from Beijing Huafukang Biotechnology Co., Ltd. Production license No.: SCXK (Beijing) 2019-0008; animal certification No.: 110322211100992176. Housing environment: SPF grade. 6 mice in a vehicle group, and 8 mice in a compound group.
5 mg of compound was added to 250 μL of DMSO and vortexed to provide a 20 mg/mL solution, which was diluted to the desired concentration with 30% hydroxypropyl-o-cyclodextrin (HP-3-CD, InnoStar Biotechnology Nantong Co., Ltd, Nantong).
Human acute lymphoblastic leukemia RS4;11 was purchased from American Type Culture Collection. RS4;11 cells were cultured in a 10 cm petri dish with an RPMI 1640 culture medium (Gibco) containing 10% fetal bovine serum (Gibco) and penicillin and streptomycin in an incubator at 37° C. containing 5% CO2. The cells were passaged twice a week, and then collected, counted and inoculated when in the exponential growth phase.
Each mouse was inoculated subcutaneously with 1×10^7 RS4;11 cells. When tumors grew to 100-200 mm^3, the mice were grouped according to tumor volume, intravenously (IV) injected with the drug once a week (QW) for a total of 4 times, at an injection volume of 0.1 mL/10 g body weight and a dose of 10 mg/kg.
The experimental index was to investigate the influence of the drug on the tumor growth, and the specific index was T/C % or tumor growth inhibition (TGI %).
Tumor diameters were measured twice a week with a vernier caliper and tumor volume (V) was calculated according to the following formula:
V=½×a×b^2 where a and b represent length and width, respectively.
T/C(%)=(T−T0)/(C−C0)×100,
where T and C represent the tumor volume of animals at the end of the experiment in the treatment group and control group, respectively;
T0 and C0 represent the tumor volume of animals at the beginning of the experiment in the treatment group and control group, respectively.
Tumor growth inhibition % (TGI %)=100−T/C(%).
When tumor started to regress, tumor growth inhibition % (TGI %)=100−(T−T0)/T0×100.
If the tumor had reduced volume compared with the initial volume, i.e., T<T0 or C<C0, it was defined as partial regression (PR) of tumor; if the tumor completely disappeared, it was defined as complete regression (CR) of tumor.

Compound	IC50 (NCI-H146 cells) [nM]	Tolerability in tumor-bearing mice (weight loss) [1]	Tumor rate TGI (%) inhibition [1] [%]	Mean tumor volume (mm^3) D 0 [1] [mm^3]	Mean tumor volume (mm^3) D 20 [1] [mm^3]
O=C(NS(=O)(=O)c1ccc(N[C@@H](CSc2ccccc2)C[C@@H]2CCCN2CCO)c(S(=O)(=O)C(F)(F)F)c1)c1ccc(N2CCC([C@@H](O)c3ccccc3-c3ccc(Cl)cc3)CC2)cc1 [Example 2-9, 4-(4-((R)-(4′-chloro-[1,1′-biphenyl]-2-yl)(hydroxy)methyl)piperidin-1-yl)-N-((4-(((R)-1-((S)-1-(2-hydroxyethyl)pyrrolidin-2-yl)-3-(phenylthio)propan-2-yl)amino)-3-((trifluoromethyl)sulfonyl)phenyl)sulfonyl)benzamide]	7	well tolerate	72	151.0	612.7
CN(CCO)CC[C@H](CSc1ccccc1)Nc1ccc(S(=O)(=O)NC(=O)c2ccc(N3CCC([C@@H](O)c4ccccc4-c4ccc(C(F)(F)F)cc4)CC3)cc2)cc1S(=O)(=O)C(F)(F)F [Example 2-10, 4-(4-((R)-hydroxy(4′-(trifluoromethyl)-[1,1′-biphenyl]-2-yl)methyl)piperidin-1-yl)-N-((4-(((R)-4-((2-hydroxyethyl)(methyl)amino)-1-(phenylthio)butan-2-yl)amino)-3-((trifluoromethyl)sulfonyl)phenyl)sulfonyl)benzamide]	4	well tolerate	82	151.9	443.3
